Assay results from patent US5900434A, “Method for inhibiting the production of interleukin-1 or tumor necrosis factor-α by administering acanthoic acid” (Korea Institute of Science and Technology, priority 1994, dated 1999).

Assays:
[1] = test system: IL-1 production in human monocytes and macrophages; assay: Inhibition of IL-1 production in human monocytes and macrophages (silica-stimulated, thymocyte 3H-thymidine assay); type: cell-based; settings: 0.1 to 100 μg/ml; 100 μg/ml silica, 48 hours; FIG. 2
Procedure: Normal human peripheral blood was heparin-treated and diluted with equal amount of Hank's balanced salt solution (HBSS: Ca^2+ and Mg^2+ free). The diluted blood was put into a centrifuge tube containing therein Ficoll-Hypaque(Sigma, St. Louis, Mo., U.S.A.) layer having a density of 1.077 piled up on Ficoll-Hypaque layer having a density of 1.119, and then centrifuged at 700×g for 30 minutes to obtain monocytes from the layer between Ficoll-Hypaque layer having a density of 1.077 and serum layer, and neutrophils from the layer between Ficoll-Hypaque layer having a density of 1.077 and that having a density of 1.119. The separated cells were washed twice with 4° C. HBSS(Ca^2+ and Mg^2+ free) and suspended in RPMI 1640 medium(Gibco, Grand Island, N.Y., U.S.A.) containing 10% fetal bovine serum(FBS, Hyclone, Logan, Utah, U.S.A.). The suspensions were added to the wells of 24-well incubation plate(Costar, Cambridge, Mass., U.S.A.) and incubated at 37° C. for 2 hours to obtain monocytes, macrophages and neutrophils. […] The activity of IL-1 in the dialyzate was determined in accordance with the method of Gery described in Cellular Immunology, 64, 293-303(1981) as follows. […] When the incubation was completed, the cells were collected on the glass fiber filter and the amount of incorporated ^3 H-thymidine was determined by liquid scintillation counter(Beckman).

[2] = test system: TNF-α production in rat alveolar macrophages and lymphocytes; assay: Inhibition of TNF-α production in rat alveolar macrophages and lymphocytes; type: cell-based; settings: 10 μg/ml; 100 μg/ml silica, 3 days; FIG. 4
Procedure: TNF-α dependent L929 fibroblasts(ATCC CCLl) were suspended in RPMI 1640 medium containing 5% FBS and added to the wells of 96-well incubation plate in an amount of 3×10^4 cells/well. The plate was incubated at 37° C. for 2 hours to make the cells adhere to the incubation plate. Then, the medium was removed and 1 μg/ml of actinomycin D(Sigma) and 50 μl of culture dialyzate of monocytes and macrophages obtained in Example 1 were added to each of the wells. The final concentration of FBS in each well was adjusted to 5% and the cells were incubated at 37° C. under 5% CO2 for 24 hours.
When the incubation was completed, the medium was removed and the cells were washed twice with PBS and stained for 5 minutes with 0.5% crystal violet solution in 20% methanol. The cells were washed three times with PBS and dried. Then, 100 μl of 33% acetic acid was added to each of the wells to release the dye, and then the O.D. of sample obtained from each of the wells was determined by using ELISA reader with 570 nm reading filter and 405 nm reference filter. The amount of released dye was calculated from the O.D. value with reference to that of the internal control group, i.e., rHu TNF-α(Genzyme). […]

[3] = test system: experimental silicosis in rat; assay: Experimental silicosis in rat, lung histology; type: in vivo, Sprague-Dawley rat; settings: silica 50 mg intrabronchial, 10 mg orally twice a week, 12 to 18 weeks, FIG. 9
Procedure: For the purpose of confirming the in vivo anti-fibrogenic activity of acanthoic acid, an experimental silicosis model was established and the effect of acanthoic acid on the silicosis model when administered thereto was determined.
Silica was refined by removing any contaminant, e.g., Fe2 O3, therefrom in accordance with the method of Lugano as described in Am. J. Pathol., 109, 27-36(1982) as follows. Silica powder(Sigma, St. Louis, Mo.; the content of the particles having a diameter of 5 μm is at least 80%) was suspended in 1N HCl and the suspension was heated and washed with distilled water. The resultant was sterilized by dry heating at 200° C. for 2 hours and then used in the following experiment.
A 7 to 8 week-old male Sprague-Dawley rat and a 5-week old female ICR mouse were anesthetized by an intraperitoneal injection of 2 to 5 mg of ketamine chloride. The rat was injected into their bronchia with 50 mg of silica dissolved in 0.5 ml of sterilized PBS and the mouse was injected with 2 mg of silica dissolved in 0.1 ml of sterilized PBS, by using an 1 ml syringe. From the next day after the injection of silica, 10 mg of acanthoic acid was administered orally to the rat and mouse twice a week for a period ranging from 12 to 18 weeks. […]

leukocyte migration = settings: cited from earlier work

C=C[C@@]1(C)CC=C2C(CCC3[C@](C)(C(=O)O)CCC[C@@]23C)C1 (single isomer, unassigned; (-)) [acanthoic acid, (-)-pimara-9(11),15-diene-19-oic acid]
inhibition of production of IL-1 [1]: inhibited by acanthoic acid in a concentration-dependent mode | inhibition of production of TNF-α [2]: inhibited | lung histology, granuloma and fibrosis (experimental silicosis) [3]: only small-sized granulomas which is not coalesce with each other and a slight fibrosis are observed | inhibition of leukocyte migration (leukocyte migration): inhibit the leukocyte migration
